Molecular target: T1, APOL1 (Homo sapiens, UniProt O14791)
T1 sequence (O14791 1-398 S342G/I384M): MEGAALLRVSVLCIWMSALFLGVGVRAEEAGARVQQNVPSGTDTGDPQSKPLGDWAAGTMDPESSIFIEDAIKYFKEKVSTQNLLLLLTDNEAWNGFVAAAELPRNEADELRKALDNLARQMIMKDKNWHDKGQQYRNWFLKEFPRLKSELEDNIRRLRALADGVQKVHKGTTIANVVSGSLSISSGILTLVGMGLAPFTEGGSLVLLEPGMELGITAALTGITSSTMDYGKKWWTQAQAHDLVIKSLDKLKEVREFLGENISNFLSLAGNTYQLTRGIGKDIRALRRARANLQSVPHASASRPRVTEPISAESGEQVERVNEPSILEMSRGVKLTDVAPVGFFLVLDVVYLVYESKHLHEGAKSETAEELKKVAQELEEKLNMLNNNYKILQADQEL
Experiment: MultiTox-Fluor Multiplex Cytotoxicity Assay in tet-inducible APOL1 T-REx-HEK293 cells (cell rescue, ratio of dead to live cells)
Format: cell-based
Conditions: tet-inducible transgenic APOL1 T-REx-HEK293 cell lines, 50 ng/mL tet, 24 hours; read-out: IP50 (i.e., IC50 for cell proliferation)
In short: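 T-REx-HEK293 cells with tet-inducible APOL1 were treated with compound (10 μM top, 10-point 3-fold dilution, duplicate) plus 50 ng/mL tetracycline for 24 h at 37° C, in DMEM with 2% tet-free FBS. MultiTox-Fluor protease signals gave a dead/live ratio, normalized to no tet (100% viability) and tet alone (0%).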

Structure (SMILES) | IC50
CCc1cc2c(s1)CCO[C@@]21CCN(CC2CN(C(=O)C3CC(=O)NC3=O)C2)[C@@H](C)C1 (stereo partly shown) [Compound 472] | < 100 nM
CCc1cc2c(s1)CCO[C@@]21CCN(CC2CN(C(=O)[C@@H](C)NS(C)(=O)=O)C2)[C@@H](C)C1 [Compound 473] | 100 to 500 nM
CCc1cc2c(s1)CCO[C@@]21CCN(CC2CN(C(=O)c3ncon3)C2)[C@@H](C)C1 [Compound 474] | < 100 nM
CCc1cc2c(s1)CCO[C@@]21CCN(CC2CN(C(=O)c3ccn(CO)n3)C2)[C@@H](C)C1 [Compound 475] | < 100 nM
CCc1cc2c(s1)CCO[C@@]21CCN(CC2CN(C(=O)c3nnc(C)o3)C2)[C@@H](C)C1 [Compound 476] | < 100 nM
CCc1cc2c(s1)CCO[C@@]21CCN(CC2CN(C(=O)CN3CCOC3=O)C2)[C@@H](C)C1 [Compound 477] | < 100 nM
CCc1cc2c(s1)CCO[C@@]21CCN(CC2CN(C(=O)C3CNC(=O)O3)C2)[C@@H](C)C1 (stereo partly shown) [Compound 478] | 100 to 500 nM
CCc1cc2c(s1)CCO[C@@]21CCN(CC2CN(C(=O)c3cc(CO)n[nH]3)C2)[C@@H](C)C1 [Compound 479] | < 100 nM
CCc1cc2c(s1)CCO[C@@]21CCN(CC2CN(C(=O)CNC(C)=O)C2)[C@@H](C)C1 [Compound 480] | 100 to 500 nM
CCc1cc2c(s1)CCO[C@@]21CCN(CC2CN(C(=O)[C@H](C)NC(C)=O)C2)[C@@H](C)C1 [Compound 481] | 100 to 500 nM
CCc1cc2c(s1)CCO[C@@]21CCN(CC2CN(C(=O)C(=O)c3cnc[nH]3)C2)[C@@H](C)C1 [Compound 482] | < 100 nM
CCc1cc2c(s1)CCO[C@@]21CCN(CC2CN(C(=O)Cn3cncn3)C2)[C@@H](C)C1 [Compound 483] | 100 to 500 nM
CCc1cc2c(s1)CCO[C@@]21CCN(CC2CN(C(=O)C3CCNC3=O)C2)[C@@H](C)C1 (stereo partly shown) [Compound 484] | < 100 nM
CCc1cc2c(s1)CCO[C@@]21CCN(CC2CN(C(=O)c3ccc(=O)[nH]c3)C2)[C@@H](C)C1 [Compound 485] | < 100 nM
CCc1cc2c(s1)CCO[C@@]21CCN(CC2CN(C(=O)c3n[nH]c(=O)[nH]3)C2)[C@@H](C)C1 [Compound 486] | 100 to 500 nM
CCc1cc2c(s1)CCO[C@@]21CCN(CC2CN(C(=O)[C@H]3CCC(=O)N3)C2)[C@@H](C)C1 [Compound 487] | 100 to 500 nM
CCc1cc2c(s1)CCO[C@@]21CCN(CC2CN(C(=O)Cc3sc(O)nc3O)C2)[C@@H](C)C1 [Compound 488] | < 100 nM
CCc1cc2c(s1)CCO[C@@]21CCN(CC2CN(C(=O)N(C)C)C2)[C@@H](C)C1 [Compound 490] | 500 to 1000 nM
CCc1cc2c(s1)CCO[C@@]21CCN(CC2CN(S(=O)(=O)CC)C2)[C@@H](C)C1 [Compound 491, (2′S,4R)-2-ethyl-1′-[(1-ethylsulfonylazetidin-3-yl)methyl]-2′-methyl-spiro[6,7-dihydrothieno[3,2-c]pyran-4,4′-piperidine]] | 100 to 500 nM
CCc1cc2c(s1)CCO[C@@]21CCN(CC2CN(S(=O)(=O)CCO)C2)[C@@H](C)C1 [Compound 492] | 100 to 500 nM
CCc1cc2c(s1)CCO[C@@]21CCN(CC2CN(S(=O)(=O)c3ccccc3)C2)[C@@H](C)C1 [Compound 493] | 500 to 1000 nM
CCc1cc2c(s1)CCO[C@@]21CCN(CC2CN(S(=O)(=O)C3CCOCC3)C2)[C@@H](C)C1 [Compound 494] | 100 to 500 nM
CCc1cc2c(s1)CCO[C@@]21CCN(CC2CN(S(=O)(=O)c3cnn4c3OCCC4)C2)[C@@H](C)C1 [Compound 495] | 500 to 1000 nM
CCc1cc2c(s1)CCO[C@@]21CCN(CC2CN(S(=O)(=O)c3c[nH]cn3)C2)[C@@H](C)C1 [Compound 496] | 500 to 1000 nM
CCC1=CC2=C(CCO[C@@]23CCN(Cc2cn(CCS(C)(=O)=O)nn2)[C@@H](C)C3)S1(=O)=O [Compound 497, (2′S,4R)-2-ethyl-2′-methyl-1′-[[1-(2-methylsulfonylethyl)triazol-4-yl]methyl]spiro[6,7-dihydrothieno[3,2-c]pyran-4,4′-piperidine]1,1-dioxide] | 100 to 500 nM

Reference: patent US20250171459A1, “2-METHYL-4',5'-DIHYDROSPIRO[PIPERIDINE-4,7'-THIENO[2,3-C]PYRAN] DERIVATIVES AS INHIBITORS OF APOL1 AND METHODS OF USING SAME” (Vertex Pharmaceuticals Incorporated, priority 2022, published 2025)
